How the values were obtained:
PI3Kα = PI3Kα (Homo sapiens (Human), UniProt P42336); experiment: Inhibition of PI3Kα efficacy assay (ADP-Glo kinase assay); type: biochemical; conditions: Table 4; read-out: PI3Kα inhibitory activity (IC50)
How it was run: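 ADP-Glo luminescent detection of ADP from PI3Kα acting on PI substrate with ATP, 60 min at RT; compounds in 8-point five-fold serial dilution from 2 mM DMSO stock. IC50 from four-parameter variable-slope fit.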

[1] = system: MIA PaCa-2-AMGR drug-resistant cell line; experiment: MIA PaCa-2-AMGR drug-resistant cell proliferation inhibitory activity test; type: cell-based; conditions: 72 h, MIA PaCa-2-AMGR drug-resistant cells, 3 days incubation, CellTiter-Glo
How it was run: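 MIA PaCa-2 line made resistant by stepwise AMG510 exposure up to 1 μM. Cells seeded at 4×10^3/well overnight, then treated with 8 concentrations (5-fold dilutions) for 3 days at 37° C, 5% CO2 in DMEM with 10% FBS + 2.5% horse serum. Viability by CellTiter-Glo luminescence; IC50 versus no-inhibitor control.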

PI3Kα, sequence (P42336 whole entry): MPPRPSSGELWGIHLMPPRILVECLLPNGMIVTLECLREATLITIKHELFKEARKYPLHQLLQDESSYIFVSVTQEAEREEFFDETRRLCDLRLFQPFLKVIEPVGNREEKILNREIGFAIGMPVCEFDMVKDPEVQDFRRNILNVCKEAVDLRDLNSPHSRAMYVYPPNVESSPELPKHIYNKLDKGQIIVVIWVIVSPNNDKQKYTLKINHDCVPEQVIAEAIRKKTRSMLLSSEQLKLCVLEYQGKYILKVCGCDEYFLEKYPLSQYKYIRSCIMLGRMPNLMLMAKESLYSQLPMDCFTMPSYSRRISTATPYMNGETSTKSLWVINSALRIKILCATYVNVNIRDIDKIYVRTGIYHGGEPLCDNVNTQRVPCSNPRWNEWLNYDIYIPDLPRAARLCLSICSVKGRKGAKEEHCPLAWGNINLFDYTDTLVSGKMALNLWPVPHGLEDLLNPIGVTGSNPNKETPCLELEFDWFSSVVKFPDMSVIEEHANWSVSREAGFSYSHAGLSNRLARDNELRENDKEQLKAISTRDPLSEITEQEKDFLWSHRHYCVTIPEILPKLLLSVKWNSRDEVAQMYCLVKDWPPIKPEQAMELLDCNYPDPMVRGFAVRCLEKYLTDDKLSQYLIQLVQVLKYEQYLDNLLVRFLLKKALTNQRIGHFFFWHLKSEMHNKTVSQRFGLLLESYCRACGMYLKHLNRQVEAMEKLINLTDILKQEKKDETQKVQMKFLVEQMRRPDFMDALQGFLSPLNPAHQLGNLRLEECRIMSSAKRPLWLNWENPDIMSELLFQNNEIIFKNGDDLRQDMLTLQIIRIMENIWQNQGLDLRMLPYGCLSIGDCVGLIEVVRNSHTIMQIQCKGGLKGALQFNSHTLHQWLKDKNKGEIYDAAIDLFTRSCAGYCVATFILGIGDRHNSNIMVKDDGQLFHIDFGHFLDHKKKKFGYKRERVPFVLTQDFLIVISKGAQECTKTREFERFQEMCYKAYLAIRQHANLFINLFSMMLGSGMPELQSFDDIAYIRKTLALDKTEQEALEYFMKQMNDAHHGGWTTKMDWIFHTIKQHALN
PI3Kα, sequence (P27986 whole entry partner): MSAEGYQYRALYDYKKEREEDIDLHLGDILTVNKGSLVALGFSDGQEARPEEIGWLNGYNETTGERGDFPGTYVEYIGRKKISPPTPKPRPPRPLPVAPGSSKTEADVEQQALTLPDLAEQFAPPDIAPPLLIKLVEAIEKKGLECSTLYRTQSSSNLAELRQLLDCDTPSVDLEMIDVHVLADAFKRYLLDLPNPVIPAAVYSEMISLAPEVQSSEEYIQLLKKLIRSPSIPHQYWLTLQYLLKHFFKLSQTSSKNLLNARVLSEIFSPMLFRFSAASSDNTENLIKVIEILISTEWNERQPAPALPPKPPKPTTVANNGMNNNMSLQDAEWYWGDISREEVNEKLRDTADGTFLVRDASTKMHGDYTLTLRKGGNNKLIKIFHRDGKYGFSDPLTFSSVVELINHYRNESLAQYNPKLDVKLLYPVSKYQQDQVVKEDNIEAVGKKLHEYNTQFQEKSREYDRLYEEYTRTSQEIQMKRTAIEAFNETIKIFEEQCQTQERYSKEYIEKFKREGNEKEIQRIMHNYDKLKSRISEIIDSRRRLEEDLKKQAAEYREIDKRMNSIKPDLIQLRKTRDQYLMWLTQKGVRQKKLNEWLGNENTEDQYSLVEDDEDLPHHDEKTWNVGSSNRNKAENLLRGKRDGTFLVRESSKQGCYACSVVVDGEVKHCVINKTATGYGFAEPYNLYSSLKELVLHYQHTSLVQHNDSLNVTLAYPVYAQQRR

COc1ncc(-c2ccc3ncnc(N4CCC5(CC4)CN(C(=O)/C=C/C(C)=O)C5)c3c2)cc1NS(=O)(=O)c1sc(C)nc1C [Example 178, (E)-N-(2-methoxy-5-(4-(2-(4-oxopent-2-enoyl)-2,7-diazaspiro[3.5]nonan-7-yl)quinazolin-6-yl)pyridin-3-yl)-2,4-dimethyl-thiazole-5-sulfonamide]
IC50 (PI3Kα): 20.5 nM
IC50 [1]: 34 nM

COC(=O)c1ncc(-c2ccc3ncnc(N4CCN(C(=O)/C=C/C(C)=O)CC4)c3c2)cc1NS(=O)(=O)c1ccc(F)cc1F [Example 181, methyl (E)-3-((2,4-difluoro-phenyl)sulfonamido)-5-(4-(4-(4-oxopent-2-enoyl)piperazin-1-yl)quinazolin-6-yl)picolinate]
IC50 (PI3Kα): 0.73 nM
IC50 [1]: 118 nM

COc1ccc(Cl)c(S(=O)(=O)Nc2cc(-c3ccc4ncnc(N5CCN(C(=O)/C=C/C(C)=O)CC5)c4c3)cnc2OC)c1 [Example 184, (E)-2-chloro-5-methoxy-N-(2-methoxy-5-(4-(4-(4-oxopent-2-enoyl)piperazin-1-yl)quinazolin-6-yl)pyridin-3-yl)benzene-sulfonamide]
IC50 (PI3Kα): 0.81 nM
IC50 [1]: 176 nM

COc1ncc(-c2ccc3ncnc(C4=CCN(C(=O)/C=C/C(C)=O)CC4)c3c2)cc1NS(=O)(=O)c1ccc(F)cc1F [Example 198, (E)-2,4-difluoro-N-(2-methoxy-5-(4-(1-(4-oxopent-2-enoyl)-1,2,3,6-tetrahydropyridin-4-yl)quinazolin-6-yl)pyridin-3-yl)benzenesulfonamide]
IC50 (PI3Kα): 1.1 nM
IC50 [1]: 10.7 nM

COc1ncc(-c2ccc3ncnc(C4=CCN(C(=O)/C=C/C(C)=O)CC4)c3c2)cc1NS(=O)(=O)c1sc(C)nc1C [Example 199, (E)-N-(2-methoxy-5-(4-(1-(4-oxopent-2-enoyl)-1,2,3,6-tetrahydropyridin-4-yl)quinazolin-6-yl)pyridin-3-yl)-2,4-dimethylthiazole-5-sulfonamide]
IC50 (PI3Kα): 1.5 nM
IC50 [1]: 19.1 nM

COc1ncc(-c2ccc3ncnc(C4=CCN(C(=O)/C=C/C(C)=O)CC4)c3c2)cc1NS(=O)(=O)c1ccccc1F [Example 200, (E)-2-fluoro-N-(2-methoxy-5-(4-(1-(4-oxopent-2-enoyl)-1,2,3,6-tetrahydropyridin-4-yl)quinazolin-6-yl)pyridin-3-yl)benzene-sulfonamide]
IC50 (PI3Kα): 2.3 nM
IC50 [1]: 4.3 nM

COc1ncc(-c2ccc3ncnc(C4=CCN(C(=O)/C=C/C(C)=O)CC4)c3c2)cc1NS(=O)(=O)c1c(F)cccc1F [Example 201, (E)-2,6-difluoro-N-(2-methoxy-5-(4-(1-(4-oxopent-2-enoyl)-1,2,3,6-tetrahydropyridin-4-yl)quinazolin-6-yl)pyridin-3-yl)benzenesulfonamide]
IC50 (PI3Kα): 3.8 nM
IC50 [1]: 11.1 nM

COc1ncc(-c2ccc3ncnc(C4=CCN(C(=O)/C=C/C(C)=O)CC4)c3c2)cc1NS(=O)(=O)c1c(F)cccc1Cl [Example 202, (E)-2-chloro-6-fluoro-N-(2-methoxy-5-(4-(1-(4-oxopent-2-enoyl)-1,2,3,6-tetrahydropyridin-4-yl)quinazolin-6-yl)pyridin-3-yl)benzene-sulfonamide]
IC50 (PI3Kα): 1.9 nM
IC50 [1]: 13 nM

COc1ncc(-c2ccc3ncnc(C4CCN(C(=O)/C=C/C(C)=O)CC4)c3c2)cc1NS(=O)(=O)c1sc(C)nc1C [Example 203, (E)-N-(2-methoxy-5-(4-(1-(4-oxopent-2-enoyl)piperidin-4-yl)quinazolin-6-yl)pyridin-3-yl)-2,4-dimethylthiazole-5-sulfonamide]
IC50 (PI3Kα): 2.4 nM
IC50 [1]: 16.7 nM

COc1ncc(-c2ccc3ncnc(C4CCN(C(=O)/C=C/C(C)=O)CC4)c3c2)cc1NS(=O)(=O)c1ccccc1F [Example 204, (E)-2-fluoro-N-(2-methoxy-5-(4-(1-(4-oxopent-2-enoyl)piperidin-4-yl)quinazolin-6-yl)pyridin-3-yl)benzenesulfonamide]
IC50 (PI3Kα): 3.3 nM
IC50 [1]: 45.8 nM

COc1ncc(-c2ccc3ncnc(C4CCN(C(=O)/C=C/C(C)=O)CC4)c3c2)cc1NS(=O)(=O)c1c(F)cccc1F [Example 205, (E)-2,6-difluoro-N-(2-methoxy-5-(4-(1-(4-oxopent-2-enoyl)piperidin-4-yl)quinazolin-6-yl)pyridin-3-yl) benzenesulfonamide]
IC50 (PI3Kα): 1.3 nM
IC50 [1]: 32.9 nM

COc1ncc(-c2ccc3ncnc(C4CCN(C(=O)/C=C/C(C)=O)CC4)c3c2)cc1NS(=O)(=O)c1c(F)cccc1Cl [Example 206, (E)-2-chloro-6-fluoro-N-(2-methoxy-5-(4-(1-(4-oxopent-2-enoyl)piperidin-4-yl)quinazolin-6-yl)pyridin-3-yl) benzenesulfonamide]
IC50 (PI3Kα): 3.9 nM
IC50 [1]: 6.9 nM

COc1ncc(-c2ccc3ncnc(N4CCN(C(=O)/C=C/C(C)=O)CC4)c3n2)cc1NS(=O)(=O)c1c(F)cncc1F [Example 210, (E)-3,5-difluoro-N-(2-methoxy-5-(4-(4-(4-oxopent-2-enoyl)piperazin-1-yl)pyrido[3,2-d]pyrimidin-6-yl)pyridin-3-yl)pyridine-4-sulfonamide]
IC50 (PI3Kα): 0.54 nM
IC50 [1]: 97.4 nM

COc1ncc(-c2ccc3ncnc(N4CCN(C(=O)/C=C/C(C)=O)CC4)c3n2)cc1NS(=O)(=O)c1cc(F)ccc1F [Example 217, (E)-2,5-difluoro-N-(2-methoxy-5-(4-(4-(4-oxopent-2-enoyl)piperazin-1-yl)pyrido[3,2-d]pyrimidin-6-yl)pyridin-3-yl) benzene-sulfonamide]
IC50 (PI3Kα): 0.41 nM
IC50 [1]: 21.4 nM

COc1ncc(-c2ccc3ncnc(N4CCN(C(=O)/C=C/C(C)=O)CC4)c3n2)cc1NS(=O)(=O)c1cccc(F)c1F [Example 218, (E)-2,3-difluoro-N-(2-methoxy-5-(4-(4-(4-oxopent-2-enoyl)piperazin-1-yl)pyrido[3,2-d]pyrimidin-6-yl)pyridin-3-yl) benzene-sulfonamide]
IC50 (PI3Kα): 2.6 nM
IC50 [1]: 16.1 nM

COc1ncc(-c2ccc3ncnc(N4CCN(C(=O)/C=C/C(C)=O)CC4)c3n2)cc1NS(=O)(=O)c1c(F)cc(F)cc1F [Example 219, (E)-2,4-trifluoro-N-(2-methoxy-5-(4-(4-(4-oxopent-2-enoyl)piperazin-1-yl)pyrido[3,2-d]pyrimidin-6-yl)pyridin-3-yl) benzene-sulfonamide]
IC50 (PI3Kα): 0.91 nM
IC50 [1]: 6.4 nM

COc1ncc(-c2ccc3ncnc(N4CCN(C(=O)/C=C/C(C)=O)CC4)c3n2)cc1NS(=O)(=O)c1ccncc1F [Example 220, (E)-3-fluoro-N-(2-methoxy-5-(4-(4-(4-oxopent-2-enoyl)piperazin-1-yl)pyrido[3,2-d]pyrimidin-6-yl)pyridin-3-yl) pyridine-4-sulfonamide]
IC50 (PI3Kα): 1.1 nM
IC50 [1]: 212 nM

COc1ncc(-c2ccc3ncnc(N4CCN(C(=O)/C=C/C(C)=O)CC4)c3n2)cc1NS(=O)(=O)c1c(Cl)cncc1Cl [Example 224, (E)-3,5-dichloro-N-(2-methoxy-5-(4-(4-(4-oxopent-2-enoyl)piperazin-1-yl)pyrido[3,2-d]pyrimidin-6-yl)pyridin-3-yl) pyridine-4-sulfonamide]
IC50 (PI3Kα): 1.1 nM
IC50 [1]: 144 nM

COc1ncc(-c2ccc3ncnc(N4CCN(C(=O)/C=C/C(C)=O)CC4)c3n2)cc1NS(=O)(=O)c1c(F)cccc1Cl [Example 225, (E)-2-chloro-6-fluoro-N-(2-methoxy-5-(4-(4-(4-oxopent-2-enoyl)piperazin-1-yl)pyrido[3,2-d]pyrimidin-6-yl)pyridin-3-yl) benzene-sulfonamide]
IC50 (PI3Kα): 0.5 nM
IC50 [1]: 26 nM

COc1ncc(-c2ccc3ncnc(N4CCN(C(=O)/C=C/C(C)=O)[C@H](C)C4)c3n2)cc1NS(=O)(=O)c1ccccc1F [Example 228, (R,E)-2-fluoro-N-(2-methoxy-5-(4-(3-methyl-4-(4-oxopent-2-enoyl)piperazin-1-yl)pyrido[3,2-d]pyrimidin-6-yl)pyridin-3-yl)benzene-sulfonamide]
IC50 (PI3Kα): 2.8 nM
IC50 [1]: 13.5 nM

COc1ncc(-c2ccc3ncnc(C4CCN(C(=O)/C=C/C(C)=O)CC4)c3n2)cc1NS(=O)(=O)c1sc(C)nc1C [Example 230, (E)-N-(2-methoxy-5-(4-(1-(4-oxopent-2-enoyl)piperidin-4-yl)pyrido[3,2-d]pyrimidin-6-yl)pyridin-3-yl)-2,4-dimethylthiazol-5-sulfonamide]
IC50 (PI3Kα): 2.6 nM
IC50 [1]: 35.3 nM

COc1ncc(-c2ccc3ncnc(C4CCN(C(=O)/C=C/C(C)=O)CC4)c3n2)cc1NS(=O)(=O)c1c(F)cc(F)cc1F [Example 231, (E)-2,4,6-trifluoro-N-(2-methoxy-5-(4-(1-(4-oxopent-2-enoyl)piperidin-4-yl)pyrido[3,2-d]pyrimidin-6-yl)pyridin-3-yl)benzenesulfonamide]
IC50 (PI3Kα): 3.6 nM
IC50 [1]: 3.6 nM

COc1ncc(-c2ccc3ncnc(C4CCN(C(=O)/C=C/C(C)=O)CC4)c3n2)cc1NS(=O)(=O)c1ccccc1F [Example 232, (E)-2-fluoro-N-(2-methoxy-5-(4-(1-(4-oxopent-2-enoyl)piperidin-4-yl)pyrido[3,2-d]pyrimidin-6-yl)pyridin-3-yl)benzenesulfonamide]
IC50 (PI3Kα): 2 nM
IC50 [1]: 9 nM

COc1ncc(-c2ccc3ncnc(C4CCN(C(=O)/C=C/C(C)=O)CC4)c3n2)cc1NS(=O)(=O)c1c(F)cccc1F [Example 233, (E)-2,6-difluoro-N-(2-methoxy-5-(4-(1-(4-oxopent-2-enoyl)piperidin-4-yl)pyrido[3,2-d]pyrimidin-6-yl)pyridin-3-yl)benzenesulfonamide]
IC50 (PI3Kα): 4 nM
IC50 [1]: 16.7 nM

COc1ncc(-c2ccc3ncnc(C4CCN(C(=O)/C=C/C(C)=O)CC4)c3n2)cc1NS(=O)(=O)c1ccc(F)cc1F [Example 234, (E)-2,4-difluoro-N-(2-methoxy-5-(4-(1-(4-oxopent-2-enoyl)piperidin-4-yl)pyrido[3,2-d]pyrimidin-6-yl)pyridin-3-yl)benzenesulfonamide]
IC50 (PI3Kα): 4.2 nM
IC50 [1]: 5.3 nM

From patent US20250145589A1, “PYRIDINE DERIVATIVE AND USE THEREOF” (SICHUAN HUIYU PHARMACEUTICAL CO., LTD., priority 2021, published 2025)
